Where “and” joins values, the source holds several entries; their conditions need not be identical. Equal entries are not always repeated. Where two headings read alike, the source gives them in different places.
Biological target: T1, CDK12–cyclin K and DDB1 (Homo sapiens, UniProt Q16531+Q9NYV4, K965R)
T1 construct: His6–CDK12 (a.a. 713–1,052); full-length or beta-propeller B domain deletion (ΔBPB: a.a. 396–705 deleted) constructs of His6–DDB1ΔBPB, StrepII–Avi–DDB1, or His6–Spy–DDB1; made in house; host or cells: Trichoplusia ni High Five insect cells (baculovirus)
Experiment: TR-FRET ternary complex formation assay (compound titration)
Assay type: binding
Summary of the method: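 Delayed (70 μs) time-resolved read; FRET computed as 520 nm over 490 nm emission.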

[1] = compound concentration 0.468 nM
[2] = compound concentration 7.92001 nM
[3] = compound concentration 15.84 nM
[4] = compound concentration 30.96 nM
[5] = compound concentration 62.6401 nM
[6] = compound concentration 79.2001 nM
[7] = compound concentration 125.28 nM
[8] = compound concentration 158.4 nM
[9] = compound concentration 244.8 nM
[10] = compound concentration 309.6 nM
[11] = compound concentration 626.401 nM
[12] = compound concentration 993.601 nM
[13] = compound concentration 1252.8 nM
[14] = compound concentration 2001.6 nM
[15] = compound concentration 9936.01 nM
[16] = compound concentration 20016 nM
[17] = in vitro complex formation, 50 nM CDK12–cyclin K, 100 nM DDB1, text and figures, read-out: TR-FRET EC50
[18] = sheet MOESM7, read-out: log TR-FRET EC50 (converted)
[19] = source data sheet correlations, read-out: TR-FRET EC50

T1 sequence (Q9NYV4 713-1052 K965R): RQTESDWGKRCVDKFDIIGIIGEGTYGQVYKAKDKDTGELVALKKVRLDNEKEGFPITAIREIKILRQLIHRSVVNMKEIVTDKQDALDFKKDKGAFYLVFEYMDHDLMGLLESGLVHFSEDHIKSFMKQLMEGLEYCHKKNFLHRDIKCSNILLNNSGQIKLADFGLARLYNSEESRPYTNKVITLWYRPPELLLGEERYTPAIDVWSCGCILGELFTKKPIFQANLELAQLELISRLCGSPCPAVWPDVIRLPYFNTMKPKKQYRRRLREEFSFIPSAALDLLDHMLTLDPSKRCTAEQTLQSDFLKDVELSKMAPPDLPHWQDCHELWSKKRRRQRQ
T1 sequence (O75909 1-267 partner): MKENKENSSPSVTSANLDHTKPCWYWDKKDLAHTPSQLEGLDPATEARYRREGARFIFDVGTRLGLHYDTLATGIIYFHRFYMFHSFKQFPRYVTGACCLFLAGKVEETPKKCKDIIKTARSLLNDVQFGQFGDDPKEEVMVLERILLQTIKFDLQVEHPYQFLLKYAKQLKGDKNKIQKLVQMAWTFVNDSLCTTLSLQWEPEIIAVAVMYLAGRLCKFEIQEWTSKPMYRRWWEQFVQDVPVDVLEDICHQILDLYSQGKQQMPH
T1 sequence (Q16531 whole entry): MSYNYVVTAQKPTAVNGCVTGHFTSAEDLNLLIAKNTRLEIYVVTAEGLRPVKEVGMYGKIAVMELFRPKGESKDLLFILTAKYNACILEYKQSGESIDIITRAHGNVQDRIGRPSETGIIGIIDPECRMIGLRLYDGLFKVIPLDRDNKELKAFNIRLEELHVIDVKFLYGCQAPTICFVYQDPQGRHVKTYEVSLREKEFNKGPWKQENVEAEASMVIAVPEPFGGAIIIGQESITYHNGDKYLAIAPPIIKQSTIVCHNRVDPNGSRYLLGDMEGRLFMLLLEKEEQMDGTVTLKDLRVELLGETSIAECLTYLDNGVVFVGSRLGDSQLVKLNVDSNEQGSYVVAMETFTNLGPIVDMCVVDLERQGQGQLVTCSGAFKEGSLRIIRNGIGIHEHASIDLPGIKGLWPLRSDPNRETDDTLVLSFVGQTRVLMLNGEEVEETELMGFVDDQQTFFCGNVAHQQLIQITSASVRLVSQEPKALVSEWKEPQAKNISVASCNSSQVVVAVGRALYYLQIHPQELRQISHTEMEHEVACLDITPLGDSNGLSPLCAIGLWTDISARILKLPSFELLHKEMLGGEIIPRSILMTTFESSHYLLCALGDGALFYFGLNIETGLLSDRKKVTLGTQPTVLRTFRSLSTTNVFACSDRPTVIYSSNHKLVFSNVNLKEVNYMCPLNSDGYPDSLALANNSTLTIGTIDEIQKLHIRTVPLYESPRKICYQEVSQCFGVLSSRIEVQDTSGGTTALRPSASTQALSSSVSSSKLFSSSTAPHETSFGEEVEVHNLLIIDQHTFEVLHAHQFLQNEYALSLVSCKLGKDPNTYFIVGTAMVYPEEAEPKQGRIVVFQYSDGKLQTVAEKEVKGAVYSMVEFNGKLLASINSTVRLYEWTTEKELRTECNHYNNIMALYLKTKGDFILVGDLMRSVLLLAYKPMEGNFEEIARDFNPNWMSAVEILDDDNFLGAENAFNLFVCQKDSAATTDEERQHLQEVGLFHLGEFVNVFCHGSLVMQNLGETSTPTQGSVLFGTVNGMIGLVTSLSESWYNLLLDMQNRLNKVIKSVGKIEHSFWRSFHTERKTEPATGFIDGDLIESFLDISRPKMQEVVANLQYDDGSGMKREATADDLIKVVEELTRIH

SMILES | TR-FRET signal [1] | TR-FRET signal (compound concentration 2.16 nM) | TR-FRET signal (compound concentration 3.6 nM) | TR-FRET signal (compound concentration 4.68 nM) | TR-FRET signal [2] | TR-FRET signal [3] | TR-FRET signal (compound concentration 21.6 nM) | TR-FRET signal [4] | TR-FRET signal (compound concentration 36 nM) | TR-FRET signal [5] | TR-FRET signal [6] | TR-FRET signal [7] | TR-FRET signal [8] | TR-FRET signal [9] | TR-FRET signal [10] | TR-FRET signal [12] | TR-FRET signal [14] | EC50 [17] [nM] | EC50 [18] [nM] | EC50 [19] [nM] | further results
O=C(CSc1nnc2c(n1)[nH]c1ccccc12)Nc1ccc(Cl)cn1 [dCeMM2] | 0.3316 and 0.3176 | 0.3609 and 0.3684 | 0.446 and 0.4561 | 0.2526 and 0.2575 | 0.6045 and 0.6093 | 0.8627 and 0.8782 | 0.6074 and 0.6249 | 1.396 and 1.344 | 1.231 and 1.287 | 1.902 and 1.956 | 2.008 and 2.099 | 2.531 and 2.559 | 2.698 and 2.725 | 3.133 and 3.085 | 3.151 and 3.239 | 3.858 and 3.701 | 3.973 and 3.947 | 83 ± 4 | 83.2 | 83.2 | TR-FRET signal [11]: 3.549 and 3.629; TR-FRET signal [13]: 3.752 and 3.846; TR-FRET signal (compound concentration 2448 nM): 3.918 and 3.967; TR-FRET signal [15]: 3.896 and 3.914; TR-FRET signal [16]: 3.769 and 3.757
CC(C)c1nn(-c2c(Cl)cccc2Cl)c2nc(Cc3ccc(OCCO)cc3)[nH]c(=O)c12 [compound 21195] | 0.2628 and 0.2699 and 0.216 and 0.239 and 0.2342 and 0.2245 | 0.3464 and 0.3831 and 0.355 and 0.3843 and 0.3684 and 0.3664 | 0.5968 and 0.6945 and 0.6556 and 0.7072 and 0.6869 and 0.6829 | – | 1.121 and 1.282 and 1.315 and 1.383 and 1.34 and 1.348 | 1.693 and 2.27 and 2.427 and 2.5504 and 2.497 | – | 2.9489 and 3.238 and 3.271 and 3.348 and 3.319 and 3.3062 | – | 3.288 and 3.494 and 3.577 and 3.452 and 3.519 and 3.526 | – | 3.346 and 3.624 and 3.589 and 3.472 and 3.591 and 3.561 | – | 3.392 and 3.7057 and 3.68 and 3.58 and 3.638 and 3.662 | – | 3.425 and 3.678 and 3.687 and 3.61 and 3.695 and 3.669 | 3.544 and 3.666 and 3.468 and 3.558 and 3.691 and 3.74 | 12 ± 0.4 | 12 | 12 | –
Cc1cccc(Nc2nc(CC(=O)Nc3ncc(C)s3)cs2)n1 [HQ461] | 0.1979 and 0.1985 and 0.1957 | 0.2749 and 0.2453 and 0.2785 | 0.4419 and 0.4117 and 0.4333 and 0.5417 and 0.5175 | – | 0.7305 and 0.6786 and 0.7304 | 1.213 and 1.144 and 1.137 and 1.215 and 1.133 | – | 1.762 and 1.75 and 1.847 | – | 2.4486 and 2.52 and 2.516 and 2.475 and 2.32 | – | 3.077 and 3.1244 and 3.038 | – | 3.496 and 3.492 and 3.484 and 3.752 and 3.554 | – | 3.886 and 3.922 and 3.8902 and 4.115 and 3.832 | 3.927 and 3.936 and 3.967 and 4.085 and 3.674 | 43 ± 13 | 42.7 | 42.7 | –
Cn1cc(-n2cnc3c(NCc4nc5cc(Cl)c(Cl)cc5[nH]4)nc(N4CCOCC4)nc32)cn1 [SR-4835] | 0.24 and 0.2487 and 0.176 and 0.1833 and 0.1905 and 0.1902 | 0.2823 and 0.3111 and 0.2192 and 0.2275 and 0.225 and 0.234 | 0.3779 and 0.4354 and 0.3063 and 0.3176 and 0.3203 and 0.3168 | – | 0.6106 and 0.7496 and 0.4912 and 0.5419 and 0.5567 and 0.5439 | 1.0796 and 1.304 and 0.9239 and 1.0376 and 1.022 and 1.028 | – | 1.682 and 1.792 and 1.613 and 1.69 and 1.622 and 1.648 | – | 1.888 and 1.962 and 1.877 and 1.886 and 1.857 and 1.865 | – | 1.977 and 2.1 and 1.914 and 1.988 and 1.925 and 1.931 | – | 2.037 and 2.154 and 1.951 and 1.963 and 1.955 and 1.942 | – | 2.0169 and 2.142 and 1.9225 and 1.946 and 1.977 and 1.949 | 2.032 and 2.062 and 1.95 and 1.938 and 1.928 and 1.943 | – | – | – | TR-FRET signal at compound concentration 0.468 nM (compound concentration 0.468 nM, raw replicate titration data): 0.24 and 0.2487 and 0.176 and 0.1833 and 0.1905 and 0.1902; TR-FRET signal at compound concentration 2.16 nM (compound concentration 2.16 nM, raw replicate titration data): 0.2823 and 0.3111 and 0.2192 and 0.2275 and 0.225 and 0.234; TR-FRET signal at compound concentration 3.6 nM (compound concentration 3.6 nM, raw replicate titration data): 0.3779 and 0.4354 and 0.3063 and 0.3176 and 0.3203 and 0.3168; TR-FRET signal at compound concentration 7.92001 nM (compound concentration 7.92001 nM, raw replicate titration data): 0.6106 and 0.7496 and 0.4912 and 0.5419 and 0.5567 and 0.5439; TR-FRET signal at compound concentration 15.84 nM (compound concentration 15.84 nM, raw replicate titration data): 1.0796 and 1.304 and 0.9239 and 1.0376 and 1.022 and 1.028; TR-FRET signal at compound concentration 30.96 nM (compound concentration 30.96 nM, raw replicate titration data): 1.682 and 1.792 and 1.613 and 1.69 and 1.622 and 1.648; TR-FRET signal at compound concentration 62.6401 nM (compound concentration 62.6401 nM, raw replicate titration data): 1.888 and 1.962 and 1.877 and 1.886 and 1.857 and 1.865; TR-FRET signal at compound concentration 125.28 nM (compound concentration 125.28 nM, raw replicate titration data): 1.977 and 2.1 and 1.914 and 1.988 and 1.925 and 1.931; TR-FRET signal at compound concentration 244.8 nM (compound concentration 244.8 nM, raw replicate titration data): 2.037 and 2.154 and 1.951 and 1.963 and 1.955 and 1.942; TR-FRET signal at compound concentration 993.601 nM (compound concentration 993.601 nM, raw replicate titration data): 2.0169 and 2.142 and 1.9225 and 1.946 and 1.977 and 1.949; TR-FRET signal at compound concentration 2001.6 nM (compound concentration 2001.6 nM, raw replicate titration data): 2.032 and 2.062 and 1.95 and 1.938 and 1.928 and 1.943
O=C(CSc1nc2ccccc2[nH]1)Nc1ccc(Cl)cn1 [dCeMM3] | 0.3108 and 0.3043 | 0.3247 and 0.3252 | 0.3605 and 0.3572 | 0.1862 and 0.1908 | 0.4123 and 0.4112 | 0.5374 and 0.5369 | 0.3061 and 0.3287 | 0.7082 and 0.7121 | 0.5639 and 0.6148 | 1.02 and 1.082 | 0.9671 and 1.036 | 1.467 and 1.538 | 1.482 and 1.527 | 2.062 and 2.196 | 2.068 and 2.079 | 3.096 and 3.149 | 3.3098 and 3.397 | 263 ± 13 | 263 | – | EC50 (Supplementary Table 2, read-out: TR-FRET EC50 TR-FRET): 263 nM; TR-FRET signal [11]: 2.602 and 2.623; TR-FRET signal [13]: 3.107 and 3.1711; TR-FRET signal (compound concentration 2448 nM): 3.437 and 3.468; TR-FRET signal [15]: 3.722 and 3.727; TR-FRET signal [16]: 3.796 and 3.749
Cc1ccc(C(=O)N2CSCC2C(=O)Nc2ncc(C)s2)o1 (centres unmarked) [dCeMM4] | 0.3047 and 0.3012 | 0.3265 and 0.3171 | 0.3554 and 0.3435 | 0.2015 and 0.1931 | 0.4106 and 0.4108 | 0.4953 and 0.4972 | 0.3497 and 0.3693 | 0.6975 and 0.7097 | 0.6301 and 0.6713 | 1.033 and 1.024 | 1.054 and 1.091 | 1.438 and 1.46 | 1.569 and 1.639 | 2.039 and 2.019 | 2.287 and 2.2 | 3.062 and 3.005 | 3.478 and 3.348 | 279 ± 12 | 279 | 279 | TR-FRET signal [11]: 2.739 and 2.6898; TR-FRET signal [13]: 3.187 and 3.255; TR-FRET signal (compound concentration 2448 nM): 3.234 and 3.447; TR-FRET signal [15]: 3.901 and 3.875; TR-FRET signal [16]: 3.981 and 3.769

Reference: article PMC10746543, “Design principles for cyclin K molecular glue degraders” (Nature Chemical Biology, 2023)
